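GI50 is the concentration that inhibits growth by half. TGI is the concentration that stops growth completely.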
How the values were obtained:
Assay in all cases: NCI tumour cell line growth inhibition, 384-well format
[1] = system: 786-0 renal
[2] = system: A498 renal
[3] = system: A549 NSCLC
[4] = system: ACHN renal
[5] = system: BT-549 breast
[6] = system: CAKI-1 renal
[7] = system: CCRF-CEM leukemia
[8] = system: COLO 205 colon
[9] = system: DU-145 prostate
[10] = system: EKVX NSCLC
[11] = system: HCC-2998 colon
[12] = system: HCT-116 colon
[13] = system: HCT-15 colon
[14] = system: HL-60(TB) leukemia
[15] = system: HOP-62 NSCLC
[16] = system: HOP-92 NSCLC
[17] = system: HS 578T breast
[18] = system: HT29 colon
[19] = system: IGROV1 ovarian
[20] = system: K-562 leukemia
[21] = system: KM12 colon
[22] = system: LOX IMVI melanoma
[23] = system: M14 melanoma
[24] = system: MALME-3M melanoma
[25] = system: MCF7 breast
[26] = system: MDA-MB-231 breast
[27] = system: MDA-MB-435 melanoma
[28] = system: MDA-MB-468 breast
[29] = system: MOLT-4 leukemia
[30] = system: NCI-H226 lung
[31] = system: NCI-H23 lung
[32] = system: NCI-H322M lung
[33] = system: NCI-H460 NSCLC
[34] = system: NCI-H522 lung
[35] = system: NCI/ADR-RES ovarian
[36] = system: OVCAR-3 ovarian
[37] = system: OVCAR-4 ovarian
[38] = system: OVCAR-8 ovarian
[39] = system: PC-3 prostate
[40] = system: RPMI-8226 leukemia
[41] = system: RXF 393 renal
[42] = system: SF-268 CNS
[43] = system: SF-295 CNS
[44] = system: SF-539 CNS
[45] = system: SK-MEL-28 melanoma
[46] = system: SK-MEL-5 melanoma
[47] = system: SK-OV-3 ovarian
[48] = system: SN12C renal
[49] = system: SNB-19 CNS
[50] = system: SNB-75 CNS
[51] = system: SR leukemia
[52] = system: SW-620 colon
[53] = system: T-47D breast
[54] = system: TK-10 renal
[55] = system: U251 glioblastoma
[56] = system: UACC-257 melanoma
[57] = system: UACC-62 melanoma
[58] = system: UO-31 renal
[59] = system: OVCAR-5 ovarian

## Nc1nc(-n2cccn2)nc(-n2cccn2)c1Br
[1]
  GI50: > 100 µM
  TGI: > 100 µM
[2]
  GI50: > 100 µM
  TGI: > 100 µM
[3]
  GI50: > 100 µM
  TGI: > 100 µM
[4]
  GI50: > 100 µM
  TGI: > 100 µM
[5]
  GI50: > 100 µM
  TGI: > 100 µM
[6]
  GI50: > 100 µM
  TGI: > 100 µM
[7]
  GI50: > 100 µM
  TGI: > 100 µM
[8]
  GI50: > 100 µM
  TGI: > 100 µM
[9]
  GI50: > 100 µM
  TGI: > 100 µM
[10]
  GI50: > 100 µM
  TGI: > 100 µM
[11]
  GI50: > 100 µM
  TGI: > 100 µM
[12]
  GI50: > 100 µM
  TGI: > 100 µM
[13]
  GI50: > 100 µM
  TGI: > 100 µM
[14]
  GI50: > 100 µM
  TGI: > 100 µM
[15]
  GI50: > 100 µM
  TGI: > 100 µM
[16]
  GI50: > 100 µM
  TGI: > 100 µM
[17]
  GI50: > 100 µM
  TGI: > 100 µM
[18]
  GI50: > 100 µM
  TGI: > 100 µM
[19]
  GI50: > 100 µM
  TGI: > 100 µM
[20]
  GI50: > 100 µM
  TGI: > 100 µM
[21]
  GI50: > 100 µM
  TGI: > 100 µM
[22]
  GI50: > 100 µM
  TGI: > 100 µM
[23]
  GI50: > 100 µM
  TGI: > 100 µM
[24]
  GI50: > 100 µM
  TGI: > 100 µM
[25]
  GI50: > 100 µM
  TGI: > 100 µM
[26]
  GI50: > 100 µM
  TGI: > 100 µM
[27]
  GI50: > 100 µM
  TGI: > 100 µM
[28]
  GI50: > 100 µM
  TGI: > 100 µM
[29]
  GI50: > 100 µM
  TGI: > 100 µM
[30]
  GI50: > 100 µM
  TGI: > 100 µM
[31]
  GI50: > 100 µM
  TGI: > 100 µM
[32]
  GI50: > 100 µM
  TGI: > 100 µM
[33]
  GI50: > 100 µM
  TGI: > 100 µM
[34]
  GI50: > 100 µM
  TGI: > 100 µM
[35]
  GI50: > 100 µM
  TGI: > 100 µM
[36]
  GI50: > 100 µM
  TGI: > 100 µM
[37]
  GI50: > 100 µM
  TGI: > 100 µM
[38]
  GI50: > 100 µM
  TGI: > 100 µM
[39]
  GI50: > 100 µM
  TGI: > 100 µM
[40]
  GI50: > 100 µM
  TGI: > 100 µM
[41]
  GI50: > 100 µM
  TGI: > 100 µM
[42]
  GI50: > 100 µM
  TGI: > 100 µM
[43]
  GI50: > 100 µM
  TGI: > 100 µM
[44]
  GI50: > 100 µM
  TGI: > 100 µM
[45]
  GI50: > 100 µM
  TGI: > 100 µM
[46]
  GI50: > 100 µM
  TGI: > 100 µM
[47]
  GI50: > 100 µM
  TGI: > 100 µM
[48]
  GI50: > 100 µM
  TGI: > 100 µM
[49]
  GI50: > 100 µM
  TGI: > 100 µM
[50]
  GI50: > 100 µM
  TGI: > 100 µM
[51]
  GI50: > 100 µM
  TGI: > 100 µM
[52]
  GI50: > 100 µM
  TGI: > 100 µM
[53]
  GI50: > 100 µM
  TGI: > 100 µM
[54]
  GI50: > 100 µM
  TGI: > 100 µM
[55]
  GI50: > 100 µM
  TGI: > 100 µM
[56]
  GI50: > 100 µM
  TGI: > 100 µM
[57]
  GI50: > 100 µM
  TGI: > 100 µM
[58]
  GI50: > 100 µM
  TGI: > 100 µM

## Cc1ccc(NC(=O)c2ccnc(C(F)(F)F)c2)cc1-c1cc(OCCO)nc(N2CCOCC2)c1
[1]
  GI50: 0.997 µM
  TGI: 11.7 µM
[2]
  GI50: 1.2 µM
  TGI: 7.92 µM
[3]
  GI50: 0.591 µM
  TGI: 14.5 µM
[4]
  GI50: 0.787 µM
  TGI: 12.3 µM
[5]
  GI50: 1.21 µM
  TGI: 6.68 µM
[6]
  GI50: 0.847 µM
  TGI: 18.1 µM
[7]
  GI50: 0.385 µM
  TGI: 1.46 µM
[8]
  GI50: 0.214 µM
  TGI: 1.12 µM
[9]
  GI50: 2.42 µM
  TGI: > 100 µM
[10]
  GI50: 2.85 µM
  TGI: 14.8 µM
[11]
  GI50: 0.224 µM
  TGI: 1.27 µM
[12]
  GI50: 0.243 µM
  TGI: 2.48 µM
[13]
  GI50: 0.339 µM
  TGI: 9.05 µM
[14]
  GI50: 0.068 µM
  TGI: 1.09 µM
[15]
  GI50: 1.23 µM
  TGI: 11.5 µM
[16]
  GI50: 0.928 µM
  TGI: 3.49 µM
[17]
  GI50: 1.19 µM
  TGI: 3.65 µM
[18]
  GI50: 0.306 µM
  TGI: 1.99 µM
[19]
  GI50: 0.697 µM
  TGI: 11.4 µM
[20]
  GI50: 0.428 µM
  TGI: 1.72 µM
[21]
  GI50: 0.523 µM
  TGI: 5.77 µM
[22]
  GI50: 0.171 µM
  TGI: 1.17 µM
[23]
  GI50: 0.129 µM
  TGI: 0.603 µM
[24]
  GI50: 0.0856 µM
  TGI: 0.316 µM
[25]
  GI50: 0.951 µM
  TGI: 10.9 µM
[26]
  GI50: 0.0373 µM
  TGI: 12.1 µM
[27]
  GI50: 0.289 µM
  TGI: 0.922 µM
[28]
  GI50: 0.359 µM
  TGI: 1.27 µM
[29]
  GI50: 0.172 µM
  TGI: 0.317 µM
[30]
  GI50: 0.577 µM
  TGI: 6.56 µM
[31]
  GI50: 0.0792 µM
  TGI: 1.1 µM
[32]
  GI50: 2.01 µM
  TGI: 16.2 µM
[33]
  GI50: 0.379 µM
  TGI: 10.6 µM
[34]
  GI50: 0.274 µM
  TGI: 0.755 µM
[35]
  GI50: 2.19 µM
  TGI: 5.24 µM
[36]
  GI50: 0.461 µM
  TGI: 1.79 µM
[37]
  GI50: 3.87 µM
  TGI: 20 µM
[59]
  GI50: 0.675 µM
  TGI: 8.88 µM
[38]
  GI50: 0.777 µM
  TGI: 4.6 µM
[39]
  GI50: 0.75 µM
  TGI: 14.2 µM
[40]
  GI50: 0.344 µM
  TGI: 0.974 µM
[41]
  GI50: 0.342 µM
  TGI: 1.96 µM
[42]
  GI50: 0.211 µM
  TGI: 0.532 µM
[43]
  GI50: 0.569 µM
  TGI: 13.9 µM
[44]
  GI50: 0.927 µM
  TGI: 3.75 µM
[45]
  GI50: 0.253 µM
  TGI: 0.758 µM
[46]
  GI50: 0.155 µM
  TGI: 0.437 µM
[47]
  GI50: 1.78 µM
  TGI: 17.8 µM
[48]
  GI50: 1.18 µM
  TGI: 10.4 µM
[49]
  GI50: 2.38 µM
  TGI: 18 µM
[50]
  GI50: 1.34 µM
  TGI: 9.72 µM
[52]
  GI50: 0.282 µM
  TGI: 10.5 µM
[53]
  GI50: 0.754 µM
  TGI: 5.92 µM
[54]
  GI50: 1.03 µM
  TGI: 87.6 µM
[55]
  GI50: 0.595 µM
  TGI: 5.43 µM
[56]
  GI50: 0.272 µM
  TGI: 1.31 µM
[57]
  GI50: 0.152 µM
  TGI: 0.526 µM
[58]
  GI50: 1.12 µM
  TGI: 3.41 µM

From PubChem BioAssay (NCI)
